Measured values published in ChEMBL document CHEMBL1201862, “PubChem BioAssay data set” (2004).
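Results reflect a 48-hour exposure of cells in 96-well plates to compound at five concentrations. GI50 = concentration required for 50% inhibition of growth.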 Active and inactive are the calls of the source. No stated cut-off is given here; in the data, active = GI50 up to about 1.1 µM and inactive = higher.

What was measured:
Test in all cases: NCI-60 cell line screen, 48 h
786-0 = system: 786-0
A498 = system: A498
A549 = system: A549
ACHN = system: ACHN
CAKI-1 = system: CAKI-1
CCRF-CEM = system: CCRF-CEM
DLD-1 = system: DLD-1
DMS-114 = system: DMS-114
DMS-273 = system: DMS-273
EKVX = system: EKVX
HCC 2998 = system: HCC 2998
HCT-116 = system: HCT-116
HCT-15 = system: HCT-15
HL-60 = system: HL-60
HOP-18 = system: HOP-18
HOP-62 = system: HOP-62
HOP-92 = system: HOP-92
HT-29 = system: HT-29
IGROV-1 = system: IGROV-1
K562 = system: K562
KM-20L2 = system: KM-20L2
KM12 = system: KM12
LOX IMVI = system: LOX IMVI
LXFL 529 = system: LXFL 529
M14 = system: M14
M19-MEL = system: M19-MEL
MOLT-4 = system: MOLT-4
Malme-3M = system: Malme-3M
NCI-H226 = system: NCI-H226
NCI-H23 = system: NCI-H23
NCI-H460 = system: NCI-H460
NCI-H522 = system: NCI-H522
OVCAR-4 = system: OVCAR-4
OVCAR-5 = system: OVCAR-5
OVCAR-8 = system: OVCAR-8
RPMI-8226 = system: RPMI-8226
RXF 393 = system: RXF 393
SF-268 = system: SF-268
SF-295 = system: SF-295
SF-539 = system: SF-539
SK-MEL-28 = system: SK-MEL-28
SK-MEL-2 = system: SK-MEL-2
SK-MEL-5 = system: SK-MEL-5
SK-OV-3 = system: SK-OV-3
SN12C = system: SN12C
SNB-19 = system: SNB-19
SNB-75 = system: SNB-75
SNB-78 = system: SNB-78
SW-620 = system: SW-620
TK-10 = system: TK-10
U-251 = system: U-251
UACC-257 = system: UACC-257
UACC-62 = system: UACC-62
UO-31 = system: UO-31
XF498 = system: XF498
COLO 205 = system: COLO 205
OVCAR-3 = system: OVCAR-3
SR = system: SR

CN(C)c1n/c(=N/c2ccc3c(c2)OCO3)ss1 was tested, and the GI50 (786-0) was 70.6 µM (inactive), the GI50 (A498) was 43.9 µM (inactive) and the GI50 (A549) was 44.6 µM (inactive). The GI50 (ACHN) was 84.9 µM (inactive), the GI50 (CAKI-1) was 97.7 µM (inactive) and the GI50 (CCRF-CEM) was 32.5 µM (inactive). For the same molecule, the GI50 (DLD-1) was 79.8 µM (inactive), the GI50 (DMS-114) was 38.6 µM (inactive) and the GI50 (DMS-273) was 66.5 µM (inactive). The GI50 (EKVX) was 49.9 µM (inactive), the GI50 (HCC 2998) was 44.4 µM (inactive) and the GI50 (HCT-116) was 49 µM (inactive). For the same molecule, the GI50 (HCT-15) was 40.4 µM, the GI50 (HL-60) was 19 µM (inactive) and the GI50 (HOP-18) was > 100 µM (inactive). The GI50 (HOP-62) was > 100 µM (inactive), the GI50 (HOP-92) was 56.5 µM (inactive) and the GI50 (HT-29) was 38.5 µM (inactive). For the same molecule, the GI50 (IGROV-1) was > 100 µM (inactive), the GI50 (K562) was 34.8 µM (inactive) and the GI50 (KM-20L2) was 39.9 µM (inactive). The GI50 (KM12) was 51.5 µM (inactive), the GI50 (LOX IMVI) was 64 µM (inactive) and the GI50 (LXFL 529) was 35.3 µM (inactive). The GI50 (M14) was > 100 µM (inactive), the GI50 (M19-MEL) was > 100 µM (inactive) and the GI50 (MOLT-4) was 22.4 µM (inactive). For the same molecule, the GI50 (Malme-3M) was > 100 µM (inactive), the GI50 (NCI-H226) was > 100 µM (inactive) and the GI50 (NCI-H23) was 66.4 µM (inactive). The GI50 (NCI-H460) was 47.4 µM (inactive), the GI50 (NCI-H522) was 26.7 µM (inactive) and the GI50 (OVCAR-4) was > 100 µM (inactive). For the same molecule, the GI50 (OVCAR-5) was > 100 µM (inactive), the GI50 (OVCAR-8) was 72.1 µM (inactive) and the GI50 (RPMI-8226) was 19.3 µM (inactive). The GI50 (RXF 393) was 96.4 µM (inactive), the GI50 (SF-268) was 47.6 µM (inactive) and the GI50 (SF-295) was > 100 µM (inactive). For the same molecule, the GI50 (SF-539) was 67.6 µM (inactive), the GI50 (SK-MEL-28) was > 100 µM (inactive) and the GI50 (SK-MEL-2) was > 100 µM (inactive). The GI50 (SK-MEL-5) was 55.3 µM (inactive), the GI50 (SK-OV-3) was > 100 µM (inactive) and the GI50 (SN12C) was 73.6 µM (inactive). The GI50 (SNB-19) was 74.5 µM (inactive), the GI50 (SNB-75) was 9.71 µM (inactive) and the GI50 (SNB-78) was 44 µM (inactive). For the same molecule, the GI50 (SW-620) was 74 µM (inactive), the GI50 (TK-10) was > 100 µM (inactive) and the GI50 (U-251) was 37.6 µM (inactive). For the same molecule, the GI50 (UACC-257) was > 100 µM (inactive), the GI50 (UACC-62) was 58.3 µM (inactive) and the GI50 (UO-31) was 27.2 µM (inactive). The GI50 (XF498) was 48.5 µM (inactive).
CCc1cc(C(=O)OC)cn1C(=N)c1ccc(Cl)cc1 was tested, and the GI50 (786-0) was > 100 µM (inactive), the GI50 (A498) was > 100 µM (inactive) and the GI50 (A549) was > 100 µM (inactive). The GI50 (ACHN) was > 100 µM (inactive), the GI50 (CAKI-1) was > 100 µM (inactive) and the GI50 (CCRF-CEM) was > 100 µM (inactive). The GI50 (COLO 205) was > 100 µM (inactive), the GI50 (DLD-1) was > 100 µM (inactive) and the GI50 (DMS-114) was > 100 µM (inactive). For the same molecule, the GI50 (DMS-273) was > 100 µM (inactive), the GI50 (EKVX) was > 100 µM (inactive) and the GI50 (HCC 2998) was > 100 µM (inactive). For the same molecule, the GI50 (HCT-116) was > 100 µM (inactive), the GI50 (HCT-15) was > 100 µM and the GI50 (HL-60) was > 100 µM (inactive). For the same molecule, the GI50 (HOP-18) was > 100 µM (inactive), the GI50 (HOP-62) was > 100 µM (inactive) and the GI50 (HOP-92) was > 100 µM (inactive). For the same molecule, the GI50 (HT-29) was > 100 µM (inactive), the GI50 (IGROV-1) was > 100 µM (inactive) and the GI50 (K562) was > 100 µM (inactive). The GI50 (KM-20L2) was > 100 µM (inactive), the GI50 (KM12) was > 100 µM (inactive) and the GI50 (LOX IMVI) was > 100 µM (inactive). The GI50 (LXFL 529) was > 100 µM (inactive), the GI50 (M14) was > 100 µM (inactive) and the GI50 (M19-MEL) was > 100 µM (inactive). The GI50 (MOLT-4) was > 100 µM (inactive), the GI50 (Malme-3M) was > 100 µM (inactive) and the GI50 (NCI-H226) was > 100 µM (inactive). For the same molecule, the GI50 (NCI-H23) was > 100 µM (inactive), the GI50 (NCI-H460) was > 100 µM (inactive) and the GI50 (OVCAR-3) was > 100 µM (inactive). For the same molecule, the GI50 (OVCAR-4) was > 100 µM (inactive), the GI50 (OVCAR-5) was > 100 µM (inactive) and the GI50 (OVCAR-8) was > 100 µM (inactive). For the same molecule, the GI50 (RPMI-8226) was > 100 µM (inactive), the GI50 (SF-268) was > 100 µM (inactive) and the GI50 (SF-295) was > 100 µM (inactive). The GI50 (SF-539) was > 100 µM (inactive), the GI50 (SK-MEL-28) was > 100 µM (inactive) and the GI50 (SK-MEL-2) was > 100 µM (inactive). For the same molecule, the GI50 (SK-MEL-5) was > 100 µM (inactive), the GI50 (SK-OV-3) was > 100 µM (inactive) and the GI50 (SN12C) was > 100 µM (inactive). The GI50 (SNB-19) was > 100 µM (inactive), the GI50 (SNB-75) was 87.5 µM (inactive) and the GI50 (SNB-78) was > 100 µM (inactive). For the same molecule, the GI50 (SW-620) was > 100 µM (inactive), the GI50 (TK-10) was > 100 µM (inactive) and the GI50 (U-251) was > 100 µM (inactive). The GI50 (UACC-257) was > 100 µM (inactive), the GI50 (UACC-62) was > 100 µM (inactive) and the GI50 (UO-31) was > 100 µM (inactive). The GI50 (XF498) was > 100 µM (inactive).
For C[N+](C)(C)CC1CCCC(C[N+](C)(C)C)C1=NO (stereo not drawn), the GI50 (786-0) was > 100 µM (inactive), the GI50 (A549) was > 100 µM (inactive) and the GI50 (ACHN) was > 100 µM (inactive). For the same molecule, the GI50 (CAKI-1) was > 100 µM (inactive), the GI50 (COLO 205) was > 100 µM (inactive) and the GI50 (DLD-1) was > 100 µM (inactive). For the same molecule, the GI50 (DMS-273) was > 100 µM (inactive), the GI50 (EKVX) was > 100 µM (inactive) and the GI50 (HCT-116) was > 100 µM (inactive). The GI50 (HCT-15) was > 100 µM, the GI50 (HOP-18) was > 100 µM (inactive) and the GI50 (HT-29) was > 100 µM (inactive). For the same molecule, the GI50 (IGROV-1) was > 100 µM (inactive), the GI50 (K562) was > 100 µM (inactive) and the GI50 (KM-20L2) was > 100 µM (inactive). The GI50 (KM12) was > 100 µM (inactive), the GI50 (LXFL 529) was > 100 µM (inactive) and the GI50 (M14) was > 100 µM (inactive). For the same molecule, the GI50 (M19-MEL) was > 100 µM (inactive), the GI50 (MOLT-4) was > 100 µM (inactive) and the GI50 (Malme-3M) was > 100 µM (inactive). The GI50 (NCI-H226) was > 100 µM (inactive), the GI50 (NCI-H23) was > 100 µM (inactive) and the GI50 (NCI-H460) was > 100 µM (inactive). For the same molecule, the GI50 (OVCAR-3) was > 100 µM (inactive), the GI50 (OVCAR-4) was > 100 µM (inactive) and the GI50 (OVCAR-5) was > 100 µM (inactive). For the same molecule, the GI50 (OVCAR-8) was > 100 µM (inactive), the GI50 (RPMI-8226) was > 100 µM (inactive) and the GI50 (RXF 393) was > 100 µM (inactive). For the same molecule, the GI50 (SF-295) was > 100 µM (inactive), the GI50 (SF-539) was > 100 µM (inactive) and the GI50 (SK-MEL-28) was > 100 µM (inactive). For the same molecule, the GI50 (SK-MEL-2) was > 100 µM (inactive), the GI50 (SK-MEL-5) was > 100 µM (inactive) and the GI50 (SK-OV-3) was > 100 µM (inactive). For the same molecule, the GI50 (SN12C) was > 100 µM (inactive), the GI50 (SNB-19) was > 100 µM (inactive) and the GI50 (SNB-75) was > 100 µM (inactive). The GI50 (SNB-78) was > 100 µM (inactive), the GI50 (SR) was > 100 µM (inactive) and the GI50 (SW-620) was > 100 µM (inactive). The GI50 (TK-10) was > 100 µM (inactive), the GI50 (U-251) was > 100 µM (inactive) and the GI50 (UACC-257) was > 100 µM (inactive). For the same molecule, the GI50 (UACC-62) was > 100 µM (inactive), the GI50 (UO-31) was > 100 µM (inactive) and the GI50 (XF498) was > 100 µM (inactive).
